Measured values: patent US20200261450A1, “6,7-DIHYDROPYRAZOLO[1,5-a]PYRAZIN-4(5H)-ONE COMPOUNDS AND THEIR USE AS NEGATIVE ALLOSTERIC MODULATORS OF MGLUR2 RECEPTORS” (Janssen Pharmaceutica NV, priority 2014, published 2020)
Like-named read-outs stand apart in the source and are kept apart here.

Tests used:
[1] = target: T1, human mGlu2 receptor (Homo sapiens, UniProt Q14416); assay: [35S]GTPγS binding assay, mGluR2 negative allosteric modulation; format: biochemical; conditions: for Emax: maximal % inhibition relative to the control glutamate response, read-out: GTPγS-hmGluR2 anGT Emax; for IC50: membranes from CHO cells transfected with human mGlu2 receptor, glutamate 60 μM (~EC80), read-out: GTPγS-hmGluR2 anGT pIC50 (converted)
T1 construct: expressed in transfected cells; host or cells: CHO cells (membrane preparation)
Text: Membrane-bound radioactivity was counted in a Topcount.

[2] = tested on: rats; assay: Reversal of the effect of the mGluR2 PAM JNJ-42153605-induced inhibition of scopolamine-induced hyperlocomotion; format: in vivo; conditions: Rattus norvegicus, criterion total distance >1500 cm, read-out: ED50 SCOP JNJ-42153605
Description: 2) Reversal of the Effect of the mGluR2 PAM JNJ-42153605-Induced Inhibition of Scopolamine-Induced Hyperlocomotion
Motor activity was measured in microprocessor-based motor activity arenas (closed gray PVC cylinders with a height of 39 cm and a diameter of 31 cm). Each arena was placed on an infrared LED (8×8 LEDs) lit box (white PVC squared box; 40×40 cm^2; height 12.5 cm. An infrared-sensitive tube camera and a white light source were mounted to the ceiling above the observation chamber to track the animal. The total distance traveled (cm) was recorded and analyzed using the Noldus Ethovision XT Video Tracking System (Version 7.0.418; Noldus, Wageningen, The Netherlands). The intensity of the light within the activity cages (measured in the centre at the level of the floor) ranged between 4 and 8 LUX.
The rats were pretreated with test compound or vehicle at 60 min before the start of the activity recordings and placed into individual cages. The rats were challenged with JNJ-42153605 (3-(cyclopropylmethyl)-7-(4-phenylpiperidin-1-yl)-8-(trifluoromethyl)[1,2,4]triazolo[4,3-a]pyridine; WO2010/130424; Cid et al. J. Med. Chem. 2012, 55, 8770-8789) (20 mg/kg, i.v.) 30 min before the start of the activity recording combined with scopolamine (0.16 mg/kg, i.v.) just before the start of the activity measurements. Immediately after the injection of scopolamine, the rats were placed into the activity monitors and total distance traveled over the first 30 min was measured.
Animals receiving the combination of JNJ-42153605 and scopolamine (n=433) almost always traveled a distance of less than 1500 cm (<1500 cm) (only 2.5% of the control rats traveled a distance of more than 1500 cm (>1500 cm)). On the other hand, animals challenged with scopolamine alone (n=215) always traveled a total distance of more than 1500 cm (>1500 cm) and almost always (in 95.8% of the rats) a distance of more than 4400 cm (>4400 cm). […] For reversal of the inhibitory effect of JNJ-42153605 on the scopolamine-induced hyperlocomotion, the following all-or-none criteria were adopted: (1) reversal: total distance >1500 cm.

[3] = tested on: Wiga rats; assay: Induction of mydriasis; format: in vivo; conditions: Rattus norvegicus, route PO, pupil diameter >25 units 1 h post-administration
Description: The pupil diameter of Wiga rats was measured with a microscopic micrometer (1 unit= 1/24 mm). Criteria for drug-induced effects: pupil diameter >25 units for mydriasis (in controls: 1.9%) 1 h post-administration of the test compound.

[4] = tested on: Wiga Wistar rats; assay: Reversal of LY-404039-induced decrease of palpebral opening in apomorphine-challenged rats; format: in vivo; conditions: Rattus norvegicus, criterion cumulative palpebral opening score >26, read-out: ED50 APO LY-404039
Description: Male Wiga Wistar rats (Crl:WI; Charles River Germany; 220±40 g) were housed under standard laboratory conditions (21±2° C.; 50-65% relative humidity; light-dark cycle set at 12 h; lights on at 6.00 h) and fasted overnight prior to the start of the experiments (tap water remained available ad libitum). During the test period, they were housed in individual cages. Palpebral opening was scored every 5 min over the first hour after injection of apomorphine (1.0 mg/kg, i.v.) in animals either pretreated or not pretreated with LY-404039 (2.5 mg/kg, s.c.) at 1 h prior to the apomorphine injection. The animals were also pretreated with test compound or solvent at a predefined interval before apomorphine challenge. The score system was: (5) exophthalmos, (4) wide open, (3) open for three-quarters, (2) half open, (1) open for one-quarter, (0) closed. The scores for palpebral opening were cumulated over the 60-min observation period.
In animals receiving apomorphine alone the median palpebral opening is 43 whereas in animals receiving apomorphine and LY-404039, the median palpebral opening is 17.

T1 sequence (Q14416 19-872): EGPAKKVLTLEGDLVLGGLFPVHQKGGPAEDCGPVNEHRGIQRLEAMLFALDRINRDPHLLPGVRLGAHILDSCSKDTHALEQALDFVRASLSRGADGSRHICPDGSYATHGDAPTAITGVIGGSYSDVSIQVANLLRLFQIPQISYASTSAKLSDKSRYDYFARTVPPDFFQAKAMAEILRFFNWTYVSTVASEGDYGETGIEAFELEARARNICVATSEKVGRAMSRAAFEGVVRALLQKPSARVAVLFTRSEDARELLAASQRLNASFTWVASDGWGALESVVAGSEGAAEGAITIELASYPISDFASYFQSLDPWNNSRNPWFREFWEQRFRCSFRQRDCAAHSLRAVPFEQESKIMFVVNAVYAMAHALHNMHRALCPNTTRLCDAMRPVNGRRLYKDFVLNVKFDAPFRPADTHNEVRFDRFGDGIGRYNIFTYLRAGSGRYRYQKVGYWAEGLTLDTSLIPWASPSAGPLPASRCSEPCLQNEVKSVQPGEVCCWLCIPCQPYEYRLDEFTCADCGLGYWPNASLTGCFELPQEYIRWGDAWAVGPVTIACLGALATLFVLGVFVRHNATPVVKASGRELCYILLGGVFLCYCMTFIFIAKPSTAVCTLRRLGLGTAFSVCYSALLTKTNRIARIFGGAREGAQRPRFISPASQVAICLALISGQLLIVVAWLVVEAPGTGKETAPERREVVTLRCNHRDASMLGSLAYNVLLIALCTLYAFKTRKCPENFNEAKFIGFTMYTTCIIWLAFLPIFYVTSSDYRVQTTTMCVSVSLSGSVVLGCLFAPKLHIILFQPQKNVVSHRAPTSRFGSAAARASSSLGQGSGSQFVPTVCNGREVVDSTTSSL

| Emax [1] | IC50 [1] | melting point | Compound | ED50 ([2]; route PO) | ED50 [3] | ED50 ([4]; route PO) | ED50 ([4]; route SC) | ED50 ([2]; route SC) |
| --- | --- | --- | --- | --- | --- | --- | --- | --- |
| 108% | 2.88 nM | 211.19 °C | Cc1ccncc1-c1cc(-c2cnn3c2C(=O)N(c2ccc(C(F)(F)F)cc2)C[C@@H]3C)on1 [compound 10] | > 0.63 mg/kg |  |  |  |  |
| 104% | 12.9 nM | 171.64 °C | Cc1cc(N2C[C@H](C)n3ncc(-c4cc(-c5cncc(F)c5)no4)c3C2=O)ccc1C(F)(F)F [compound 19] |  |  |  |  |  |
| 109% | 3.24 nM | 143.97 °C | Cc1cc(N2C[C@H](C)n3ncc(-c4cc(-c5cccnc5)no4)c3C2=O)ccc1C(F)(F)F [compound 18] | > 0.63 mg/kg |  |  |  |  |
| 110% | 1.2 nM | 149.26 °C | Cc1ccncc1-c1cc(-c2cnn3c2C(=O)N(c2ccc(C(F)(F)F)c(Cl)c2)C[C@@H]3C)on1 [compound 15] | > 0.63 mg/kg |  |  |  |  |
| 105% | 5.89 nM | 181.56 °C | C[C@H]1CN(c2ccc(C(F)(F)F)c(Cl)c2)C(=O)c2c(-c3cc(-c4cncc(F)c4)no3)cnn21 [compound 14] |  |  |  |  |  |
| 100% | 490 nM |  | C[C@H]1CN(c2ccc(C(F)(F)F)cc2)C(=O)c2c(-c3cc(N)no3)cnn21 [Co. No. 1, (7S)-3-(3-Aminoisoxazol-5-yl)-7-methyl-5-[4-(trifluoromethyl)phenyl]-6,7-dihydropyrazolo[1,5-a]pyrazin-4-one] |  |  |  |  |  |
| 105% | 3.8 nM | 168.47 °C | C[C@H]1CN(c2ccc(C(F)(F)F)c(Cl)c2)C(=O)c2c(-c3cc(-c4cnccn4)no3)cnn21 [compound 16] | > 0.63 mg/kg |  |  |  |  |
| 105% | 1.58 nM |  | C[C@H]1CN(c2ccc(C(F)(F)F)c(Cl)c2)C(=O)c2c(-c3cc(-c4ccc(N)nc4)no3)cnn21 [Co. No. 3, (7S)-3-[3-(6-Amino-3-pyridyl)isoxazol-5-yl]-5-[3-chloro-4-(trifluoromethyl)phenyl]-7-methyl-6,7-dihydropyrazolo[1,5-a]pyrazin-4-one] | 0.5 mg/kg |  |  |  |  |
| 103% | 2.75 nM | 126.2 °C | Cc1cc(-c2cnn3c2C(=O)N(c2ccc(C(F)(F)F)c(Cl)c2)C[C@@H]3C)on1 [compound 12] | 1.99 mg/kg |  |  |  |  |
| 102% | 16.6 nM | 161 °C | Cc1cc(-c2cnn3c2C(=O)N(c2ccc(C(F)(F)F)cc2)C[C@@H]3C)on1 [compound 5] | > 2.5 mg/kg |  |  |  |  |
| 105% | 20 nM | 202.51 °C | C[C@H]1CN(c2ccc(C(F)(F)F)cc2)C(=O)c2c(-c3cc(-c4cnccn4)no3)cnn21 [compound 11] |  |  |  |  |  |
| 105% | 2.34 nM | 115.67 °C | C[C@H]1CN(c2ccc(C(F)(F)F)c(Cl)c2)C(=O)c2c(-c3cc(-c4cccnc4)no3)cnn21 [Co. No. 4, (7S)-5-[3-Chloro-4-(trifluoromethyl)phenyl]-7-methyl-3-[3-(3-pyridyl)isoxazol-5-yl]-6,7-dihydropyrazolo[1,5-a]pyrazin-4-one] | 0.51 mg/kg |  |  |  |  |
| 107% | 7.24 nM | 159.08 °C | C[C@H]1CN(c2ccc(C(F)(F)F)c(Cl)c2)C(=O)c2c(-c3cc(-c4ccccn4)no3)cnn21 [compound 13] | > 0.63 mg/kg |  |  |  |  |
| 107% | 10.2 nM | 171.97 °C | Cc1cc(N2C[C@H](C)n3ncc(-c4cc(-c5ccccn5)no4)c3C2=O)ccc1C(F)(F)F [compound 17] | > 0.63 mg/kg |  |  |  |  |
| 103% | 12.3 nM | 220.55 °C | C[C@H]1CN(c2ccc(C(F)(F)F)cc2)C(=O)c2c(-c3cc(-c4ccccc4)no3)cnn21 [compound 6] |  |  |  |  |  |
| 107% | 11.7 nM | 227.97 °C | C[C@H]1CN(c2ccc(C(F)(F)F)cc2)C(=O)c2c(-c3cc(-c4ccccn4)no3)cnn21 [compound 7] |  |  |  |  |  |
| 109% | 2.14 nM | 172.39 °C | Cc1ccncc1-c1cc(-c2cnn3c2C(=O)N(c2ccc(C(F)(F)F)c(C)c2)C[C@@H]3C)on1 [compound 20] | > 0.63 mg/kg |  |  |  |  |
| 108% | 11 nM | 180.17 °C | C[C@H]1CN(c2ccc(C(F)(F)F)cc2)C(=O)c2c(-c3cc(-c4cncc(F)c4)no3)cnn21 [compound 9] |  |  |  |  |  |
| 109% | 7.08 nM | 150.37 °C | Cc1cc(N2C[C@H](C)n3ncc(-c4cc(-c5cnccn5)no4)c3C2=O)ccc1C(F)(F)F [compound 21] | > 0.63 mg/kg |  |  |  |  |
| 105% | 12.9 nM | 186.15 °C | C[C@H]1CN(c2ccc(C(F)(F)F)cc2)C(=O)c2c(-c3cc(-c4cccnc4)no3)cnn21 [compound 8] |  |  |  |  |  |
| 112% | 1.95 nM | 263.6 °C | C[C@H]1CN(c2ccc(C(F)(F)F)cc2)C(=O)c2c(-c3cc(-c4ccc(N)nc4)no3)cnn21 [Co. No. 2, (7S)-3-[3-(6-Amino-3-pyridyl)isoxazol-5-yl]-7-methyl-5-[4-(trifluoromethyl)phenyl]-6,7-dihydropyrazolo[1,5-a]pyrazin-4-one] | 0.28 mg/kg | 7.94 mg/kg | 0.32 mg/kg | 0.2 mg/kg | 0.3 mg/kg |
